Experimental findings from US7566733B2, “Benzimidazole derivatives useful as selective androgen receptor modulators (sarms)” (priority 2004, dated 2009) are described below.

This test concerns castrated male Sprague Dawley rats. The experiment in a line: Ventral Prostate and Seminal Vesicle Weight In Vivo Assay. Also: key: active: the non weight adjusted prostate weight was ≦40 mg or the % Inhibition prostate weight, body weight adjusted was ≧40%@2 mg/day dosage; inactive: did not meet the specified criteria defined above. As to conditions: inhibition of testosterone-enhanced prostate weight; immature castrated rats, once daily for five days, usually orally 40 mg/kg, with testosterone propionate 2 mg/kg s.c. The method, then:
Ventral Prostate and Seminal Vesicle Weight In Vivo Assay
Immature (approximately 50 g) castrated male Sprague Dawley rats (Charles River) were treated once daily for five days with test compound (usually given orally at 40 mg/kg in a volume of 0.3 mL, in 30% cyclodextrin or 0.5% methylcellulose vehicle) and with testosterone propionate (given subcutaneously by injection at the nape of the neck at 2 mg/kg, in a volume of 0.1 mL in sesame oil). On the sixth day, the rats were euthanized by asphyxiation in carbon dioxide. Ventral prosatates and seminal vesicles were removed and their wet weights determined. Test compound activity was determined as the percent inhibition of testosterone-enhanced tissue weights, with a vehicle-treated control group set to zero percent and a testosterone alone-treated control group set to 100%.
Representative compounds of the present invention were tested according to the procedure described, with results as listed in Table 7 below. A test compound is listed as “active” if the non weight adjusted prostate weight was ≦40 mg or the % Inhibition prostate weight, body weight adjusted was ≧40%@2 mg/day dosage. ID50's, if determined, of ≦15 mg/day also indicated an “active” compound.
`OC(c1nc2cc(Cl)c(Cl)cc2[nH]1)C(F)(F)F` (racemic) [Compound 59, 1-(5,6-DiChloro-1H-benzoimidazol-2-yl-)2,2,2-trifluoro-ethanol]: the outcome was active. Take `ON=C(c1nc2cc(Cl)c(Cl)cc2[nH]1)C(F)(F)F` (racemic) [Compound 141, 1-(5,6-Dichloro-1H-benzoimidazol-2-yl)-2,2,2-trifluoro-ethanone Oxime]: the result was active. For `CC(O)(Cc1cccc(F)c1)c1nc2cc(Cl)c(Cl)cc2[nH]1` (stereo not drawn) [Compound 3] the value was “inactive”; for `CC(O)(CO)c1nc2cc(Cl)c(Cl)cc2[nH]1` (stereo not drawn) [Compound 4], “active”; for `Cn1c(C(C)(O)CC#N)nc2cc(Cl)c(Cl)cc21` (stereo not drawn) [Compound 8], “active”.

For `Cn1c(C(C)(O)C(F)(F)F)nc2cc(Cl)c(Cl)cc21` (stereo not drawn) [Compound 9], the outcome was active. For `CCOCC(C)(O)c1nc2cc(Cl)c(Cl)cc2n1C` (stereo not drawn) [Compound 10] the value was “inactive”; for `CCn1c(C(C)(O)C(F)(F)F)nc2cc(Cl)c(Cl)cc21` (stereo not drawn) [Compound 13], “active”.

Consider `CCCn1c(C(C)(O)C(F)(F)F)nc2cc(Cl)c(Cl)cc21` (stereo not drawn) [Compound 14], for which the outcome was active. With `CCCCn1c(C(C)(O)C(F)(F)F)nc2cc(Cl)c(Cl)cc21` (stereo not drawn) [Compound 15], the outcome was active. Turning to `CCn1c(C(C)(O)CC#N)nc2cc(Cl)c(Cl)cc21` (stereo not drawn) [Compound 16], the result was active. The same measure for `CCn1c(C(C)(O)COC)nc2cc(Cl)c(Cl)cc21` (stereo not drawn) [Compound 17]: “inactive”; for `Cn1c(C(C)(O)CCl)nc2cc(Cl)c(Cl)cc21` (stereo not drawn) [Compound 18, 1-Chloro-2-(5,6-dichloro-1-methyl-1H-benzoimidazol-2-yl)-propan-2-ol]: “active”. As to `CC(O)(c1nc2cc(Cl)c(Cl)cc2[nH]1)C(F)(F)F` (stereo not drawn) [Compound 20], the result was inactive.

In the case of `CCSCC(C)(O)c1nc2cc(Cl)c(Cl)cc2n1C` (stereo not drawn) [Compound 25, 2-(5,6-Dichloro-1-methyl-1H-benzoimidazol-2-yl)-1-ethylsulfanyl-propan-2-ol], the result was active. As for `CC(O)(Cc1nc2cc(Cl)c(Cl)cc2[nH]1)C(F)(F)F` (stereo not drawn) [Compound 27, 3-(5,6-Dichloro-2-1H-benzoimidazol-2-yl)-1,1,1-trifluoro-2-methyl-propan-2-ol], the result was active. For `COC(C)(CC#N)c1nc2cc(Cl)c(Cl)cc2n1C` (stereo not drawn) [Compound 28], the result was active. In the case of `CCSCC(C)(O)c1nc2cc(Cl)c(Cl)cc2n1CC` (stereo not drawn) [Compound 31, 2-(5,6-Dichloro-1-ethyl-1H-benzoimidazol-2-yl)-1-ethylsulfanyl-propan-2-ol], the outcome was active. Turning to `Cn1c(CC(C)(O)C(F)(F)F)nc2cc(Cl)c(Cl)cc21` (stereo not drawn) [Compound 33], the outcome was active. As to `CCn1c(CC(C)(O)C(F)(F)F)nc2cc(Cl)c(Cl)cc21` (stereo not drawn) [Compound 37], the result was active. As to `FC(F)(F)Cc1nc2cc(Cl)c(Cl)cc2[nH]1` [Compound 41, 5,6-Dichloro-2-(2,2,2-trifluoro-ethyl)-1H-benzoimidazole], the outcome was active. As for `CCn1c(C(C)(O)CSCC(F)(F)F)nc2cc(Cl)c(Cl)cc21` (stereo not drawn) [Compound 44, 2-(5,6-Dichloro-1-ethyl-1H-benzoimidazol-2-yl)-1-(2,2,2-trifluoro-ethylsulfanyl)-propan-2-ol], the result was inactive. `Cn1c(C(C)(O)CS(=O)(=O)Cc2ccccc2)nc2cc(Cl)c(Cl)cc21` (stereo not drawn) [Compound 45, 2-(5,6-Dichloro-1-methyl-1H-benzoimidazol-2-yl)-1-phenylmethanesulfonyl-propan-2-ol]: the result was inactive. The same measure for `CCn1c(C(C)(O)CS(=O)(=O)CC)nc2cc(Cl)c(Cl)cc21` (stereo not drawn) [Compound 48, 2-(5,6-Dichloro-1-ethyl-1H-benzoimidazol-2-yl)-1-ethanesulfonyl-propan-2-ol]: “active”; for `CCn1c(C(C)(O)CS(=O)(=O)CC(F)(F)F)nc2cc(Cl)c(Cl)cc21` (stereo not drawn) [Compound 49, 2-(5,6-Dichloro-1-ethyl-1H-benzoimidazol-2-yl)-1-(2,2,2-trifluoro-ethanesulfonyl)-propan-2-ol]: “inactive”.

Turning to `CC(=O)Nc1ccc(SCC(C)(O)c2nc3cc(Cl)c(Cl)cc3n2C)cc1` (stereo not drawn) [Compound 56, N-{4-[2-(5,6-Dichloro-1-methyl-1H-benzoimidazol-2-yl)-2-hydroxy-propylsulfanyl]-phenyl}-acetamide], the outcome was inactive. For `COCn1c(CC(F)(F)F)nc2cc(Cl)c(Cl)cc21` [Compound 57, 5,6-Dichloro-1-methoxymethyl-2-(2,2,2-trifluoro-ethyl)-1H-benzoimidazole] the value was “active”. For `CSCn1c(CC(F)(F)F)nc2cc(Cl)c(Cl)cc21` [Compound 58, 5,6-Dichloro-1-methylsulfanylmethyl-2-(2,2,2-trifluoro-ethyl)-1H-benzoimidazole], the result was active. In the case of `COC(c1nc2cc(Cl)c(Cl)cc2n1C)C(F)(F)F` (stereo not drawn) [Compound 61], the outcome was active. The same measure for `CCOC(c1nc2cc(Cl)c(Cl)cc2n1CC)C(F)(F)F` (stereo not drawn) [Compound 62]: “active”; for `FC(F)(F)Cc1nc2cc(Cl)c(C(F)(F)F)cc2[nH]1` [Compound 68]: “active”; for `N#Cc1cc2nc(CC(F)(F)F)[nH]c2cc1C(F)(F)F` [Compound 69]: “inactive”. For `Cn1c(CC(F)(F)F)nc2cc(Cl)c(Cl)cc21` [Compound 71, 5,6-Dichloro-1-methyl-2-(2,2,2-trifluoro-ethyl)-1H-benzoimidazole], the outcome was active. The same measure for `FC(F)(F)Cc1nc2cc(Cl)c(Cl)cc2n1COc1ccc(Cl)cc1` [Compound 72]: “inactive”; for `CS(=O)(=O)Cn1c(CC(F)(F)F)nc2cc(Cl)c(Cl)cc21` [Compound 73, 5,6-Dichloro-1-methanesulfonylmethyl-2-(2,2,2-trifluoro-ethyl)-1H-benzoimidazole]: “active”; for `O=C(Cn1c(CC(F)(F)F)nc2cc(Cl)c(Cl)cc21)c1ccccc1` [Compound 74, 2-[5,6-Dichloro-2-(2,2,2-trifluoro-ethyl)-benzoimidazol-1-yl]-1-phenyl-ethanone]: “inactive”.

In the case of `O=C(Cn1c(CC(F)(F)F)nc2cc(Cl)c(Cl)cc21)c1ccc(F)cc1` [Compound 75, 2-[5,6-Dichloro-2-(2,2,2-trifluoro-ethyl)-benzoimidazol-1-yl]-1-(4-fluoro-phenyl)-ethanone], the result was active. Consider `O=C(Cn1c(CC(F)(F)F)nc2cc(Cl)c(Cl)cc21)c1ccc([N+](=O)[O-])cc1` [Compound 76, 2-[5,6-Dichloro-2-(2,2,2-trifluoro-ethyl)-benzoimidazol-1-yl]-1-(4-nitro-phenyl)-ethanone], for which the outcome was active.

`COc1ccc(C(=O)Cn2c(CC(F)(F)F)nc3cc(Cl)c(Cl)cc32)c(OC)c1` [Compound 77, 2-[5,6-Dichloro-2-(2,2,2-trifluoro-ethyl)-benzoimidazol-1-yl]-1-(2,4-dimethoxy-Phenyl)-ethanone]: the outcome was inactive.
